Test results published in patent publication US6914045B2, “Glycopeptide antibiotics” (Wyeth Holdings Corporation, priority 2001, dated 2005).
≈ marks a conversion by molar mass, not a printed value.

Columns and labels:
Test in all cases: in vitro antibacterial evaluation, MIC by broth dilution
Assay type in all cases: cell-based
Enterococcus sp. = settings: broth dilution, 18 hours at 35° C.
Procedure, shortened: (§1)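 Broth dilution per NCCLS M7-A2 in Mueller-Hinton II medium, inoculum 5×10^5 CFU/mL, antibiotic range 64-0.06 μg/mL. MIC taken as lowest concentration inhibiting growth; Gram-positive panel includes recent clinical isolates resistant to methicillin, penicillin and/or vancomycin.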

Staphylococcus sp. = settings: broth dilution, 18 hours at 35° C.; for MIC Staphylococcus aureus (GC 1131): strain GC 1131
Procedure, shortened: as §1

Streptococcus sp. = settings: broth dilution, 18 hours at 35° C.
Procedure, shortened: as §1

Escherichia coli = settings: 18 hours at 35° C.

CC(c1ccccc1)C1NC(=O)CNC(=O)C(CO)NC(=O)C(C(O)C2CNC(=N)N2C2OC(CO)C(O)C(O)C2O)NC(=O)C(C(O)C2CNC(=N)N2)NC(=O)C(Cc2ccc(OC3OC(CO)C(OC4OC5COC6(CCCCC6)OC5C(O)C4O)C(O)C3O)cc2)NC1=O (centres unmarked) [Example 203]
MIC Enterococcus avium (GC 4558) (Enterococcus sp.): 8 µg/mL (≈ 5.82 µM)
MIC Enterococcus faecalis (ATCC 29212) (Enterococcus sp.): 8 µg/mL (≈ 5.82 µM)
MIC Enterococcus faecalis (GC 2242) (Enterococcus sp.): 4 µg/mL (≈ 2.91 µM)
MIC Enterococcus faecalis (GC 2691) (Enterococcus sp.): 8 µg/mL (≈ 5.82 µM)
MIC Enterococcus faecalis (GC 3059) (Enterococcus sp.): 8 µg/mL (≈ 5.82 µM)
MIC Enterococcus faecalis (GC 4552) (Enterococcus sp.): 8 µg/mL (≈ 5.82 µM)
MIC Enterococcus faecalis (GC 4553) (Enterococcus sp.): 8 µg/mL (≈ 5.82 µM)
MIC Enterococcus faecalis (GC 4554) (Enterococcus sp.): 8 µg/mL (≈ 5.82 µM)
MIC Enterococcus faecalis (GC 6189) (Enterococcus sp.): 8 µg/mL (≈ 5.82 µM)
MIC Enterococcus faecium (GC 2243) (Enterococcus sp.): 8 µg/mL (≈ 5.82 µM)
MIC Enterococcus faecium (GC 4556) (Enterococcus sp.): 4 µg/mL (≈ 2.91 µM)
MIC Enterococcus faecium (GC 4557) (Enterococcus sp.): 4 µg/mL (≈ 2.91 µM)
MIC Enterococcus faecalis (ATCC 29212) (Enterococcus sp.; inoculum 5×10^5 CFU/mL, strain ATCC 29212): 8 µg/mL (≈ 5.82 µM)
MIC Enterococcus faecalis (GC 2242) (Enterococcus sp.; inoculum 5×10^5 CFU/mL, strain GC 2242): 4 µg/mL (≈ 2.91 µM)
MIC Enterococcus faecium (GC 2243) (Enterococcus sp.; inoculum 5×10^5 CFU/mL, strain GC 2243): 8 µg/mL (≈ 5.82 µM)
MIC Enterococcus faecalis (GC 2691) (Enterococcus sp.; inoculum 5×10^5 CFU/mL, strain GC 2691): 8 µg/mL (≈ 5.82 µM)
MIC Enterococcus faecalis (GC 3059) (Enterococcus sp.; inoculum 5×10^5 CFU/mL, strain GC 3059): 8 µg/mL (≈ 5.82 µM)
MIC Enterococcus faecalis (GC 4552) (Enterococcus sp.; inoculum 5×10^5 CFU/mL, strain GC 4552): 8 µg/mL (≈ 5.82 µM)
MIC Enterococcus faecalis (GC 4553) (Enterococcus sp.; inoculum 5×10^5 CFU/mL, strain GC 4553): 8 µg/mL (≈ 5.82 µM)
MIC Enterococcus faecalis (GC 4554) (Enterococcus sp.; inoculum 5×10^5 CFU/mL, strain GC 4554): 8 µg/mL (≈ 5.82 µM)
MIC Enterococcus faecium (GC 4556) (Enterococcus sp.; inoculum 5×10^5 CFU/mL, strain GC 4556): 4 µg/mL (≈ 2.91 µM)
MIC Enterococcus faecium (GC 4557) (Enterococcus sp.; inoculum 5×10^5 CFU/mL, strain GC 4557): 4 µg/mL (≈ 2.91 µM)
MIC Enterococcus avium (GC 4558) (Enterococcus sp.; inoculum 5×10^5 CFU/mL, strain GC 4558): 8 µg/mL (≈ 5.82 µM)
MIC Enterococcus faecalis (GC 6189) (Enterococcus sp.; inoculum 5×10^5 CFU/mL, strain GC 6189): 8 µg/mL (≈ 5.82 µM)
MIC Staphylococcus aureus (GC 1131) (Staphylococcus sp.; inoculum 5×10^5 CFU/mL): 2 µg/mL (≈ 1.45 µM)
MIC Staphylococcus aureus (ATCC 29213) (Staphylococcus sp.; strain ATCC 29213): 1 µg/mL (≈ 0.727 µM)
MIC Staphylococcus aureus (GC 1131) (Staphylococcus sp.): 2 µg/mL (≈ 1.45 µM)
MIC Staphylococcus aureus (GC 3051) (Staphylococcus sp.; strain GC 3051): 2 µg/mL (≈ 1.45 µM)
MIC Staphylococcus aureus (GC 3053) (Staphylococcus sp.; strain GC 3053): 4 µg/mL (≈ 2.91 µM)
MIC Staphylococcus aureus (GC 4541) (Staphylococcus sp.; strain GC 4541): 1 µg/mL (≈ 0.727 µM)
MIC Staphylococcus aureus (GC 4542) (Staphylococcus sp.; strain GC 4542): 1 µg/mL (≈ 0.727 µM)
MIC Staphylococcus aureus-SMITH (GC 4543) (Staphylococcus sp.; strain GC 4543): 2 µg/mL (≈ 1.45 µM)
MIC Staphylococcus aureus (GC 4544) (Staphylococcus sp.; strain GC 4544): 2 µg/mL (≈ 1.45 µM)
MIC Staphylococcus aureus (GC 4545) (Staphylococcus sp.; strain GC 4545): 1 µg/mL (≈ 0.727 µM)
MIC Staphylococcus haemolyticus (GC 4546) (Staphylococcus sp.; strain GC 4546): 1 µg/mL (≈ 0.727 µM)
MIC Coagulase Negative Staphylococcus (GC 4547) (Staphylococcus sp.; strain GC 4547): 2 µg/mL (≈ 1.45 µM)
MIC Coagulase Negative Staphylococcus (GC 4548) (Staphylococcus sp.; strain GC 4548): 1 µg/mL (≈ 0.727 µM)
MIC Coagulase Negative Staphylococcus (GC 4549) (Staphylococcus sp.; strain GC 4549): 1 µg/mL (≈ 0.727 µM)
MIC Coagulase Negative Staphylococcus (GC 4551) (Staphylococcus sp.; strain GC 4551): 2 µg/mL (≈ 1.45 µM)
MIC Coagulase Negative Staphylococcus (GC 6257) (Staphylococcus sp.; strain GC 6257): 1 µg/mL (≈ 0.727 µM)
MIC Streptococcus agalactiae (GC 4564) (Streptococcus sp.): 1 µg/mL (≈ 0.727 µM)
MIC Streptococcus pneumoniae (ATCC 6301) (Streptococcus sp.): 0.5 µg/mL (≈ 0.364 µM)
MIC Streptococcus pneumoniae (GC 1894) (Streptococcus sp.): 0.12 µg/mL (≈ 0.0872 µM)
MIC Streptococcus pneumoniae (GC 4565) (Streptococcus sp.): 0.25 µg/mL (≈ 0.182 µM)
MIC Streptococcus pyogenes (GC 4563) (Streptococcus sp.): 0.5 µg/mL (≈ 0.364 µM)
MIC Streptococcus pneumoniae (ATCC 6301) (Streptococcus sp.; inoculum 5×10^5 CFU/mL, strain ATCC 6301): 0.5 µg/mL (≈ 0.364 µM)
MIC Streptococcus pneumoniae (GC 1894) (Streptococcus sp.; inoculum 5×10^5 CFU/mL, strain GC 1894): 0.12 µg/mL (≈ 0.0872 µM)
MIC Streptococcus pyogenes (GC 4563) (Streptococcus sp.; inoculum 5×10^5 CFU/mL, strain GC 4563): 0.5 µg/mL (≈ 0.364 µM)
MIC Streptococcus agalactiae (GC 4564) (Streptococcus sp.; inoculum 5×10^5 CFU/mL, strain GC 4564): 1 µg/mL (≈ 0.727 µM)
MIC Streptococcus pneumoniae (GC 4565) (Streptococcus sp.; inoculum 5×10^5 CFU/mL, strain GC 4565): 0.25 µg/mL (≈ 0.182 µM)
MIC Escherichia coli (ATCC 25922) (Escherichia coli): 64 µg/mL (≈ 46.5 µM)
MIC Escherichia coli (GC 4559) (Escherichia coli): 32 µg/mL (≈ 23.3 µM)
MIC Escherichia coli (GC 4560) (Escherichia coli): 2 µg/mL (≈ 1.45 µM)
